Measured values reported in PubChem BioAssay (NCI).
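Each compound was tested at five concentrations against cells in 96-well plates for 48 hours. GI50: concentration for 50% inhibition of growth. TGI: total growth inhibition.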

What was measured:
Assay in all cases: NCI-60 cell line screen, 48 h
[1] = test system: A498 renal
[2] = test system: U251 CNS
[3] = test system: MDA-MB-435
[4] = test system: HOP-62 NSCLC
[5] = test system: EKVX NSCLC
[6] = test system: MOLT-4 leukemia
[7] = test system: HCC-2998 colon
[8] = test system: HCT-15 colon
[9] = test system: OVCAR-8 ovarian
[10] = test system: A549 NSCLC
[11] = test system: SR leukemia
[12] = test system: HCT-116 colon
[13] = test system: COLO 205 colon
[14] = test system: CCRF-CEM leukemia
[15] = test system: CAKI-1 renal
[16] = test system: TK-10 renal
[17] = test system: RPMI-8226 leukemia
[18] = test system: OVCAR-3 ovarian
[19] = test system: K-562 leukemia
[20] = test system: PC-3 prostate
[21] = test system: KM12 colon
[22] = test system: NCI-H23 lung
[23] = test system: UACC-257 melanoma
[24] = test system: SF-295 CNS
[25] = test system: SN12C renal
[26] = test system: UO-31 renal
[27] = test system: BT-549 breast
[28] = test system: HL-60(TB) leukemia
[29] = test system: SK-MEL-2 melanoma
[30] = test system: LOX IMVI melanoma
[31] = test system: SK-MEL-28 melanoma
[32] = test system: SF-539 CNS
[33] = test system: 786-0 renal
[34] = test system: ACHN renal
[35] = test system: MCF7 breast
[36] = test system: SNB-19 CNS
[37] = test system: SK-OV-3 ovarian
[38] = test system: NCI-H460 lung
[39] = test system: OVCAR-5 ovarian
[40] = test system: M14 melanoma
[41] = test system: UACC-62 melanoma
[42] = test system: SW-620 colon
[43] = test system: DU-145 prostate
[44] = test system: SK-MEL-5 melanoma
[45] = test system: HS 578T breast
[46] = test system: HT29 colon
[47] = test system: MALME-3M melanoma
[48] = test system: NCI-H226 lung
[49] = test system: T-47D breast
[50] = test system: NCI/ADR-RES ovarian
[51] = test system: NCI-H522 lung
[52] = test system: SNB-75 CNS
[53] = test system: SF-268 CNS
[54] = test system: IGROV1 ovarian
[55] = test system: MDA-MB-231 breast
[56] = test system: OVCAR-4 ovarian

For `CCCCN1C=CCN(CCCC)C1`, which GI50 [1] is on record?
Its GI50 is > 100 µM.

What about the TGI [1] of the same compound?
Its TGI is > 100 µM.

What about the GI50 [2] of the same compound?
The GI50 was 32.2 µM.

And the TGI [2]?
Its TGI is > 100 µM.

What about the GI50 [3] of the same compound?
Its GI50 is 33.8 µM.

What about the TGI [3] of the same compound?
Its TGI is > 100 µM.

What about the GI50 [4] of the same compound?
Its GI50 is > 100 µM.

What about the TGI [4] of the same compound?
Its TGI is > 100 µM.

And the GI50 [5]?
The GI50 was 18.5 µM.

And the TGI [5]?
The TGI was > 100 µM.

What about the GI50 [6] of the same compound?
Its GI50 is 60.7 µM.

And the TGI [6]?
The TGI was > 100 µM.

What about the GI50 [7] of the same compound?
Its GI50 is 34 µM.

And the TGI [7]?
Its TGI is > 100 µM.

What about the GI50 [8] of the same compound?
The GI50 was > 100 µM.

What about the TGI [8] of the same compound?
The TGI was > 100 µM.

What about the GI50 [9] of the same compound?
The GI50 was 61.7 µM.

What about the TGI [9] of the same compound?
Its TGI is > 100 µM.

And the GI50 [10]?
The GI50 was > 100 µM.

And the TGI [10]?
The TGI was > 100 µM.

And the GI50 [11]?
Its GI50 is > 100 µM.

What about the TGI [11] of the same compound?
The TGI was > 100 µM.

What about the GI50 [12] of the same compound?
Its GI50 is 39 µM.

What about the TGI [12] of the same compound?
Its TGI is > 100 µM.

What about the GI50 [13] of the same compound?
The GI50 was 28.9 µM.

What about the TGI [13] of the same compound?
The TGI was > 100 µM.

What about the GI50 [14] of the same compound?
The GI50 was > 100 µM.

What about the TGI [14] of the same compound?
Its TGI is > 100 µM.

And the GI50 [15]?
The GI50 was > 100 µM.

And the TGI [15]?
Its TGI is > 100 µM.

What about the GI50 [16] of the same compound?
The GI50 was > 100 µM.

What about the TGI [16] of the same compound?
Its TGI is > 100 µM.

What about the GI50 [17] of the same compound?
Its GI50 is 23.6 µM.

What about the TGI [17] of the same compound?
Its TGI is 93.6 µM.

And the GI50 [18]?
The GI50 was 23.8 µM.

And the TGI [18]?
Its TGI is 57.2 µM.

And the GI50 [19]?
Its GI50 is 32 µM.

And the TGI [19]?
Its TGI is > 100 µM.

And the GI50 [20]?
The GI50 was 37.7 µM.

And the TGI [20]?
The TGI was > 100 µM.

And the GI50 [21]?
The GI50 was 35.8 µM.

And the TGI [21]?
Its TGI is > 100 µM.

And the GI50 [22]?
Its GI50 is 63.8 µM.

And the TGI [22]?
The TGI was > 100 µM.

And the GI50 [23]?
Its GI50 is 22.8 µM.

And the TGI [23]?
The TGI was 80.7 µM.

And the GI50 [24]?
Its GI50 is 49.8 µM.

And the TGI [24]?
The TGI was > 100 µM.

And the GI50 [25]?
The GI50 was 71.7 µM.

What about the TGI [25] of the same compound?
Its TGI is > 100 µM.

And the GI50 [26]?
The GI50 was > 100 µM.

And the TGI [26]?
Its TGI is > 100 µM.

What about the GI50 [27] of the same compound?
Its GI50 is > 100 µM.

What about the TGI [27] of the same compound?
Its TGI is > 100 µM.

What about the GI50 [28] of the same compound?
The GI50 was 21.2 µM.

What about the TGI [28] of the same compound?
The TGI was 75.4 µM.

What about the GI50 [29] of the same compound?
The GI50 was 46.3 µM.

And the TGI [29]?
Its TGI is > 100 µM.

What about the GI50 [30] of the same compound?
The GI50 was 68.5 µM.

What about the TGI [30] of the same compound?
Its TGI is > 100 µM.

And the GI50 [31]?
The GI50 was 86.9 µM.

And the TGI [31]?
The TGI was > 100 µM.

And the GI50 [32]?
Its GI50 is > 100 µM.

What about the TGI [32] of the same compound?
Its TGI is > 100 µM.

What about the GI50 [33] of the same compound?
Its GI50 is > 100 µM.

What about the TGI [33] of the same compound?
Its TGI is > 100 µM.

What about the GI50 [34] of the same compound?
Its GI50 is 89.7 µM.

What about the TGI [34] of the same compound?
The TGI was > 100 µM.

And the GI50 [35]?
Its GI50 is 57 µM.

And the TGI [35]?
Its TGI is > 100 µM.

What about the GI50 [36] of the same compound?
Its GI50 is 46.4 µM.

What about the TGI [36] of the same compound?
The TGI was > 100 µM.

And the GI50 [37]?
Its GI50 is > 100 µM.

And the TGI [37]?
Its TGI is > 100 µM.

What about the GI50 [38] of the same compound?
The GI50 was 47.5 µM.

And the TGI [38]?
Its TGI is > 100 µM.

What about the GI50 [39] of the same compound?
Its GI50 is > 100 µM.

And the TGI [39]?
Its TGI is > 100 µM.

What about the GI50 [40] of the same compound?
The GI50 was 85.1 µM.

And the TGI [40]?
The TGI was > 100 µM.

And the GI50 [41]?
The GI50 was 48.1 µM.

What about the TGI [41] of the same compound?
The TGI was > 100 µM.

What about the GI50 [42] of the same compound?
The GI50 was 70.1 µM.

What about the TGI [42] of the same compound?
The TGI was > 100 µM.

What about the GI50 [43] of the same compound?
Its GI50 is > 100 µM.

What about the TGI [43] of the same compound?
Its TGI is > 100 µM.

And the GI50 [44]?
The GI50 was 30.1 µM.

And the TGI [44]?
Its TGI is > 100 µM.

What about the GI50 [45] of the same compound?
Its GI50 is 63.4 µM.

What about the TGI [45] of the same compound?
The TGI was > 100 µM.

What about the GI50 [46] of the same compound?
Its GI50 is 61.4 µM.

What about the TGI [46] of the same compound?
The TGI was > 100 µM.

And the GI50 [47]?
The GI50 was 21.2 µM.

And the TGI [47]?
The TGI was 57.3 µM.

And the GI50 [48]?
Its GI50 is > 100 µM.

And the TGI [48]?
The TGI was > 100 µM.

What about the GI50 [49] of the same compound?
Its GI50 is 27.3 µM.

And the TGI [49]?
Its TGI is > 100 µM.

What about the GI50 [50] of the same compound?
The GI50 was > 100 µM.

What about the TGI [50] of the same compound?
The TGI was > 100 µM.

What about the GI50 [51] of the same compound?
The GI50 was 52.5 µM.

And the TGI [51]?
Its TGI is > 100 µM.

What about the GI50 [52] of the same compound?
Its GI50 is > 100 µM.

What about the TGI [52] of the same compound?
The TGI was > 100 µM.

And the GI50 [53]?
The GI50 was 53 µM.

And the TGI [53]?
The TGI was > 100 µM.

And the GI50 [54]?
Its GI50 is 66.4 µM.

And the TGI [54]?
Its TGI is > 100 µM.

And the GI50 [55]?
The GI50 was > 100 µM.

What about the TGI [55] of the same compound?
The TGI was > 100 µM.

What about the GI50 [56] of the same compound?
Its GI50 is 58.8 µM.

And the TGI [56]?
Its TGI is > 100 µM.
